These results are taken from patent US10745416B2, “Macrocyclic compounds for treating disease” (Turning Point Therapeutics, Inc., priority 2017, dated 2020).

Experiment in all cases: Cell proliferation assay (CellTiter-Glo, 72 hours)
Experiment [1] concerns KM12 cell (TPM3-TRKA). Format: cell-based, human. To be noted: Homo sapiens, KM12, anti-cell proliferation. The method, then: (§1) Human medulla thyroid carcinoma cell line TT (containing RET […] mutation) and acute myelogenous cell line KG-1 were purchased from ATCC. Human colon cancer cell line KMI2 (containing TPM3-TRKA) was obtained from NCI.
(§2) Two thousand cells per well were seeded in 384 well white plate for 24 hrs, and then treated with compounds for 72 hours (37° C., 5% CO2). Cell proliferation was measured using CellTiter-Glo luciferase-based ATP detection assay (Promega) following the manufactures's protocol. IC50 determinations were performed using GraphPad Prism software (GraphPad, Inc., San Diego, Calif.).

In experiment [2] the test system is KG-1. Format: cell-based, human. The settings on record: Homo sapiens, KG-1, anti-cell proliferation. The protocol: as §1, §2
For experiment [3], the target named is T1, BaF3 EML4-ALK (Homo sapiens, UniProt Q9UM73).
T1 construct: The EML4-ALK gene (variant 1) was synthesized at GenScript and cloned into pCDH-CMV-MCS-EF1-Puro plasmid (System Biosciences, Inc); fused on or other part: Q9HC35 (Echinoderm microtubule-associated protein-like 4)
T1 sequence (Q9UM73 whole entry, change not shown, the tested form may be a part): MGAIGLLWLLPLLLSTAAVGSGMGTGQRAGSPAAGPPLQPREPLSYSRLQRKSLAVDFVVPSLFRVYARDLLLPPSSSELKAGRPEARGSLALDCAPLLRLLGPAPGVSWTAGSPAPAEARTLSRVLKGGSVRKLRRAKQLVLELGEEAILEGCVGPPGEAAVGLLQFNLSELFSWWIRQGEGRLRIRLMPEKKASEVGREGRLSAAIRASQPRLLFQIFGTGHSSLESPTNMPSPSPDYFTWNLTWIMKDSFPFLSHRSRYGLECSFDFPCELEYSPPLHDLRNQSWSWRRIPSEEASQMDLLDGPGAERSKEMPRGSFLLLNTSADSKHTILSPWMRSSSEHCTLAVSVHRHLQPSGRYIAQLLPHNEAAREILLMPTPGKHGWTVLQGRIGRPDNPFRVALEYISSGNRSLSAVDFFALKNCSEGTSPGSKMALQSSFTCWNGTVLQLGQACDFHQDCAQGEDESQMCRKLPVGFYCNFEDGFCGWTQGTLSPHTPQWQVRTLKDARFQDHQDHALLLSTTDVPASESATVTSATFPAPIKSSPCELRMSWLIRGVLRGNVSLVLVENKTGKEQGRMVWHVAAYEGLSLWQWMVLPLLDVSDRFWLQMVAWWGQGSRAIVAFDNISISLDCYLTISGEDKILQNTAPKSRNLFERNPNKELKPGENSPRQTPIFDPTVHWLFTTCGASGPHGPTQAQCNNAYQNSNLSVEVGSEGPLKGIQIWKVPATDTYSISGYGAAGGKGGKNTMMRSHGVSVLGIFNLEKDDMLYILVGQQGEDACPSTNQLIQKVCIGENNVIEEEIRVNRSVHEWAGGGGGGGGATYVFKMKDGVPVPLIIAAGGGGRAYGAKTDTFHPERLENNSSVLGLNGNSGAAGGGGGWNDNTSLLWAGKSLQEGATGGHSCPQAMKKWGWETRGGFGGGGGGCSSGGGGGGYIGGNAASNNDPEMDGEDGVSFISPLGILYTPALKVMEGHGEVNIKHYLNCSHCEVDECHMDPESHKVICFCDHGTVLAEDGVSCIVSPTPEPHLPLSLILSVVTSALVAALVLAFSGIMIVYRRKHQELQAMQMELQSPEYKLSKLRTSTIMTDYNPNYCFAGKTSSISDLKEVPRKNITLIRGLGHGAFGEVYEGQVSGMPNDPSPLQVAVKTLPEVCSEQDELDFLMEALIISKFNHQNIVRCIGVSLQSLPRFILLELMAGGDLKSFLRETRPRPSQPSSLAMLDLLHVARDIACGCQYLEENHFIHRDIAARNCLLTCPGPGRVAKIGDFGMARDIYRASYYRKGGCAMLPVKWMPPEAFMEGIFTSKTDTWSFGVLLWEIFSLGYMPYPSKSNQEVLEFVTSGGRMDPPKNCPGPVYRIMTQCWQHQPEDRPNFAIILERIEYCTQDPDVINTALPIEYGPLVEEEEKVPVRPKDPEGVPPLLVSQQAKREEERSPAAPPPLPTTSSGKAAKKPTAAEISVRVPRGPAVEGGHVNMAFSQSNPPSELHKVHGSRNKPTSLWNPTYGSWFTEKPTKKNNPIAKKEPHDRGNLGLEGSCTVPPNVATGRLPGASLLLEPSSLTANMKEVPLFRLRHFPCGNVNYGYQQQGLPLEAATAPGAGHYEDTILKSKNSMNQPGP
Format: cell-based. The settings on record: anti-cell proliferation. The method, then:
The EML4-ALK gene (variant 1) was synthesized at GenScript and cloned into pCDH-CMV-MCS-EF1-Puro plasmid (System Biosciences, Inc). Ba/F3-EML4-ALK wild type were generated by transducing Ba/F3 cells with lentivirus containing EML4-ALK wide type. Stable cell lines were selected by puromycin treatment, followed by IL-3 withdrawal. Briefly, 5×10^6 Ba/F3 cells were transduced with lentivirus supernatant in the presence of 8 μg/mL protamine sulfate. The transduced cells were subsequently selected with 1 μg/mL puromycin in the presence of IL3-containing medium RPMI1640, plus 10% FBS. After 10-12 days of selection, the surviving cells were further selected for IL3 independent growth.
as §2

Experiment [4] concerns the target T2, BaF3 KIF5B-RET_V804M (Homo sapiens, UniProt P07949, V804M, cells depend on it).
T2 construct: fused on or other part: P33176 (Kinesin-1 heavy chain)
Format: cell-based. The settings on record: anti-cell proliferation, read-out: BaF3 KIF5B-RET_V804M IC50.
Description: (§3) The KIF5B-RET gene was synthesized at GenScript and cloned into pCDH-CMV-MCS-EF1-Puro plasmid (System Biosciences, Inc). KIF5B-RET point mutation V804M was generated at GenScript by PCR and confirmed by sequencing. Ba/F3-KIF5B-RET wild type and mutant were generated by transducing Ba/F3 cells with lentivirus containing KIF5B-RET wide type or mutant. Stable cell lines were selected by puromycin treatment, followed by IL-3 withdrawal. Briefly, 5×10^6 Ba/F3 cells were transduced with lentivirus supernatant in the presence of 8 μg/mL protamine sulfate. The transduced cells were subsequently selected with 1 µg/mL puromycin in the presence of IL3-containing medium RPMI1640, plus 10% FBS. After 10-12 days of selection, the surviving cells were further selected for IL3 independent growth.
as §2

Experiment [5] concerns the target T3, BaF3 KIF5B-RET (Homo sapiens, UniProt P07949).
T3 construct: fused on or other part: P33176 (Kinesin-1 heavy chain)
Format: cell-based. To be noted: anti-cell proliferation, read-out: BaF3 KIF5B-RET IC50.
Description: as §3, §2

Experiment [6] deals with T4, BaF3 KIF5B-RET_G810R (Homo sapiens, UniProt P07949, G810R, cells depend on it).
T4 construct: fused on or other part: P33176 (Kinesin-1 heavy chain)
T4 sequence (P07949 whole entry G810R, the tested form may be a part): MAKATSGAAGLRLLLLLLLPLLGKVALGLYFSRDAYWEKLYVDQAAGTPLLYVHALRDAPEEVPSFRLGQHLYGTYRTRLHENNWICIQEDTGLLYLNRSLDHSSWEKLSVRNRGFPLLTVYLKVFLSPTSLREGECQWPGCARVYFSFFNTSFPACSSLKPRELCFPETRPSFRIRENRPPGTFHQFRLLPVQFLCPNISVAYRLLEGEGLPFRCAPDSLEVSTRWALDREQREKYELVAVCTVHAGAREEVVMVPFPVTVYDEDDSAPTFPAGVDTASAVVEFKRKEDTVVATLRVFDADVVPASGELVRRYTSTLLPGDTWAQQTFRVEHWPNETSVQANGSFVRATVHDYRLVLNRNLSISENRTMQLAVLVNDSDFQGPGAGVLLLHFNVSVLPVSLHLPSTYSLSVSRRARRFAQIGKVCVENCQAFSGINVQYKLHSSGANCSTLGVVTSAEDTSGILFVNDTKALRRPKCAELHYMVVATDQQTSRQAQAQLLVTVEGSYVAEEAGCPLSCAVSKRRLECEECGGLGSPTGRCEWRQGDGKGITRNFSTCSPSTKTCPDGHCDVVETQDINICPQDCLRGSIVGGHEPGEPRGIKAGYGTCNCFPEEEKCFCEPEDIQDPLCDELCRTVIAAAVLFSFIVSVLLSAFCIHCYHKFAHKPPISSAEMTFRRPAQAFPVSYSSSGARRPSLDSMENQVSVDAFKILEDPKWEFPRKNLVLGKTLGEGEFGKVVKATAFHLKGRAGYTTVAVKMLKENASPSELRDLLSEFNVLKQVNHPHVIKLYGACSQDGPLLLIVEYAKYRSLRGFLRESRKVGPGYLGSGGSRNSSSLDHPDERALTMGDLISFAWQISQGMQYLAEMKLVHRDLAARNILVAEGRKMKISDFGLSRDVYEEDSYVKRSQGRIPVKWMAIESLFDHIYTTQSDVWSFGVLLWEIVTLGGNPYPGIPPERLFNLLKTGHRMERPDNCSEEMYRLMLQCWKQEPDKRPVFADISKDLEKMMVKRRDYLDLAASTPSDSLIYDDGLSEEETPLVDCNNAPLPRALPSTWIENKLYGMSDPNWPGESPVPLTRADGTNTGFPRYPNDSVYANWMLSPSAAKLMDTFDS
Format: cell-based. The settings on record: anti-cell proliferation, read-out: BaF3 KIF5B-RET_G810R IC50.
Description: [The source words this procedure for another variant and reports this variant under the same test.] as §3, §2

T3 sequence (P07949 whole entry, change not shown, the tested form may be a part): as the sequence (P07949 whole entry G810R, the tested form may be a part) above, with R810G counted along it
T2 sequence (P07949 whole entry V804M, the tested form may be a part): as the sequence (P07949 whole entry G810R, the tested form may be a part) above, with V804M, R810G counted along it

For the molecule `C[C@H]1CNC(=O)c2cnn3cc4c(nc23)N(Cc2cc(F)cnc2O1)[C@@H]1CC[C@@H]1O4` [Compound 8, (2aR,10S,19aS)-6-fluoro-10-methyl-1,2,2a,11,12,19a-hexahydro-4H-16,18-(metheno)cyclobuta[5,6][1,4] oxazino[3,4-i]pyrazolo[4,3-f]pyrido[3,2-l][1,4,8,10]oxatriazacyclotridecin-13(10H)-one], the values for the IC50 in experiment [1] and in experiment [2] were 0.3 nM and 189 nM, respectively. For the same molecule, the GI50 worked out at 4000 nM in experiment [3], 1930 nM in experiment [4] and 342 nM in experiment [5].
For `C[C@H]1CNC(=O)c2cnn3cc4c(nc23)N(Cc2cc(F)cnc2O1)[C@H]1CC[C@H]1O4` [Compound 9, (2aS,10S,19aR)-6-fluoro-10-methyl-1,2,2a,11,12,19a-hexahydro-4H-16,18-(metheno)cyclobuta[5,6][1,4] oxazino[3,4-i]pyrazolo[4,3-f]pyrido[3,2-l][1,4,8,10]oxatriazacyclotridecin-13(10H)-one] the same measures were 3.3 nM, 1000 nM, 8000 nM, greater than 10000 nM and 2360 nM.
For `C[C@@H]1COc2ncc(F)cc2CN2c3nc4c(cnn4cc3O[C@H]3CC[C@H]32)C(=O)N1` [Compound 10, (2aR,11R,19aS)-6-fluoro-11-methyl-1,2,2a,11,12,19a-hexahydro-4H-16,18-(metheno)cyclobuta[5,6][1,4] oxazino[3,4-i]pyrazolo[4,3-f]pyrido[3,2-l][1,4,8,10]oxatriazacyclotridecin-13(10H)-one] the same measures were 0.2 nM, 78.3 nM, 4000 nM, 1210 nM and 274 nM.
Regarding `C[C@@H]1COc2ncc(F)cc2CN2c3nc4c(cnn4cc3O[C@@H]3CC[C@@H]32)C(=O)N1` [Compound 11, (2aS,11R,19aR)-6-fluoro-11-methyl-1,2,2a,11,12,19a-hexahydro-4H-16,18-(metheno)cyclobuta[5,6][1,4] oxazino[3,4-i]pyrazolo[4,3-f]pyrido[3,2-l][1,4,8,10]oxatriazacyclotridecin-13(10H)-one], the IC50 in experiment [1] is 0.4 nM; in experiment [2] it was 307 nM. Further, the GI50 is 3000 nM in experiment [4] and 839 nM in experiment [5].
For `O=C1N[C@H](C2CC2)COc2ncc(F)cc2CN2c3nc4c1cnn4cc3O[C@H]1CCC[C@H]12` [Compound 14, (3aR,12R,20aS)-12-cyclopropyl-7-fluoro-2,3,3a,12,13,20a-hexahydro-1H,5H-17-19-(metheno)cyclopenta[5,6][1,4] oxazino[4,3-i]pyrazolo[4,3-f]pyrido[3,2-l][1,4,8,10]oxatriazacyclotridecin-14(11H)-one], the IC50 was found to be 26.6 nM in experiment [1] and 273 nM in experiment [2]. The GI50 was found to be 908 nM in experiment [3], 120 nM in experiment [5] and 530 nM in experiment [6].
For the molecule `C[C@H]1CNC(=O)c2cnn3cc4c(nc23)N(Cc2cc(F)cnc2O1)[C@H]1COC[C@H]1O4` [Compound 31, (3aS,11S,20aS)-7-fluoro-11-methyl-1,3,3a,12,13,20a-hexahydro-5H-17,19-(metheno)furo[3′,4′:5,6][1,4]oxazino[3,4-i]pyrazolo[4,3-f]pyrido[3,2-l][1,4,8,10]oxatriazacyclotridecin-14(11H)-one], the IC50 in experiment [1] stood at 365 nM; in experiment [2], 10000 nM. For the same molecule, the figures for the GI50 in experiment [4], in experiment [5] and in experiment [6] were greater than 10000 nM, 4000 nM and greater than 10000 nM, respectively.
On to `CC1(C)CCOc2ncc(F)cc2CN2c3nc4c(cnn4cc3O[C@H]3CCC[C@H]32)C(=O)N1` [Compound 34, (3aR,21aS)-7-fluoro-13,13-dimethyl-2,3,3a,11,12,13,14,21a-octahydro-1H,5H,15H-18,20-(metheno)cyclopenta[5,6][1,4]oxazino[4,3-e]pyrazolo[3,4-h]pyrido[2,3-b][1,5,7,11]oxatriazacyclotetradecin-15-one], for which the IC50 in experiment [1] is 50 nM; in experiment [2], 408 nM. Further, the GI50 in experiment [3] stood at 1000 nM; in experiment [5] it was 62.2 nM; in experiment [6], 651 nM.
`C[C@@H]1CCNC(=O)c2cnn3cc4c(nc23)N(Cc2cc(F)cnc2O1)[C@@H]1CCC[C@@H]1O4` [Compound 35, (3aR,11R,21aS)-7-fluoro-11-methyl-2,3,3a,11,12,13,14,21a-octahydro-1H,5H,15H-18,20-(metheno)cyclopenta[5,6][1,4]oxazino[4,3-e]pyrazolo[3,4-h]pyrido[2,3-b][1,5,7,11]oxatriazacyclotetradecin-15-one]: the values for the IC50 in experiment [1] and in experiment [2] were less than 0.2 nM and 55.7 nM, respectively. For the same molecule, the values for the GI50 in experiment [3] and in experiment [5] were 1100 nM and 8.8 nM, respectively.
With `CC(=O)N1C[C@@H]2Oc3cn4ncc5c4nc3N(Cc3cc(F)cnc3O[C@@H](C)CNC5=O)[C@@H]2C1` [Compound 36, (3aR,11S,20aS)-2-acetyl-7-fluoro-11-methyl-2,3,3a,12,13,20a-hexahydro-1H, 5H-17,19-(metheno)pyrazolo[4,3-f]pyrido [3,2-l]pyrrolo[3′,4′:5,6][1,4]oxazino[3,4-i][1,4,8,10]oxatriazacyclotridecin-14(11H)-one], the 50% inhibitory concentration (IC50) in experiment [1] amounted to 1000 nM; in experiment [2], 10000 nM. Also, the GI50 in experiment [3] was greater than 10000 nM; in experiment [5], 8000 nM.
For `CC(=O)N1C[C@H]2Oc3cn4ncc5c4nc3N(Cc3cc(F)cnc3O[C@@H](C)CNC5=O)[C@H]2C1` [Compound 37, (3aS,11S,20aR)-2-acetyl-7-fluoro-11-methyl-2,3,3a,12,13,20a-hexahydro-1H, 5H-17,19-(metheno)pyrazolo[4,3-f]pyrido [3,2-l]pyrrolo[3′,4′:5,6][1,4]oxazino[3,4-i][1,4,8,10]oxatriazacyclotridecin-14(11H)-one] the same measures were 1200 nM, 3000 nM, greater than 10000 nM and 8000 nM.
On to `O=C1N[C@H]2CC[C@H](C2)Oc2ncc(F)cc2CN2c3nc4c1cnn4cc3O[C@H]1CCC[C@H]12` [Compound 41, (3aR,11R,14S,22aS)-7-fluoro-2,3,3a,12,13,14,15,22a-octahydro-1H, 5H-11,14-metheno-19,21-(metheno)cyclopenta[5,6][1,4] oxazino[4,3-e]pyrazolo[3,4-h]pyrido[2,3-b][1,5,7,11]oxatriazacyclopentadecin-16(11H)-one], for which the figures for the IC50 in experiment [1] and in experiment [2] were 431 nM and 389 nM, respectively. Moreover, the values for the GI50 in experiment [3], in experiment [5] and in experiment [6] were 1450 nM, 5.1 nM and 156 nM, respectively.
For `O=C1N[C@@H]2CC[C@@H](C2)Oc2ncc(F)cc2CN2c3nc4c1cnn4cc3O[C@H]1CCC[C@H]12` [Compound 42, (3aR,11S,14R,22aS)-7-fluoro-2,3,3a,12,13,14,15,22a-octahydro-1H, 5H-11,14-metheno-19,21-(metheno)cyclopenta[5,6][1,4] oxazino[4,3-e]pyrazolo[3,4-h]pyrido[2,3-b][1,5,7,11]oxatriazacyclopentadecin-16(11H)-one] the same measures were 9.8 nM, 41 nM, 338 nM, 0.5 nM and 17.4 nM.
The matching figures for `O=C1NC[C@@H](O)COc2ncc(F)cc2CN2c3nc4c1cnn4cc3O[C@H]1CCC[C@H]12` [Compound 43, (3aR,12R,21aS)-7-fluoro-12-hydroxy-2,3,3a,11,12,13,14,21a-octahydro-1H, 5H,15H-18,20-(metheno)cyclopenta[5,6][1,4] oxazino[4,3-e]pyrazolo[3,4-h]pyrido[2,3-b][1,5,7,11]oxatriazacyclotetradecin-15-one]: 109 nM, 359 nM, 2990 nM, 68.9 nM and 396 nM.

In general, IC50 refers to the point on the concentration scale where inhibition reaches its midpoint. A low value points to higher potency.
